Like-named read-outs stand apart in the source and are kept apart here.
What was measured:
corn pollen = test: Pollen toxicity: germination of corn pollen after incubation in pollen storage solutions; assay type: cell-based, corn (Zea mays); details: 1.0M sucrose, 10 mM MES, 0.5M, 1.0M or 1.5M cryoprotectant; 15 minutes at room temperature or 4° C.; germination plates; FIG. 1
Description: Pollen storage solutions comprising 1.0M sucrose, 10 mM MES, and 0.5M, 1.0M, or 1.5M of cryoprotectant were evaluated for pollen toxicity. Briefly, corn pollen was suspended in each pollen storage solution at either room temperature or 4° C. and incubated for 15 minutes. The pollen storage solutions were applied to standard germination plates using an airbrush and images of the plates were obtained to evaluate germination. A 1.0M solution of sucrose was used as the positive control.

pollen [1] = details: not told
Description: (§1) As used herein the term “impermeable” refers to a state where an isotonic solution of the solute when first mixed with pollen produces less than about 10% pollen lysis over the first 4 hours that the pollen is in contact with the solution. As used herein the term “permeable” refers to a state where an isotonic solution of the cryoprotectant when first mixed with pollen produces greater than 50% pollen lysis over the first 4 hours that the pollen is in contact with the solution.
(§2) The pollen permeability of numerous cryoprotectants was evaluated to initially identify suitable candidates for use in the pollen storage solution. Suitable cryoprotectants will be permeable to the pollen in the solution. Suitable solutes will maintain the tonicity of the pollen storage solution at a concentration between about 0.5M and about 3.0M. […] Pollen storage solutions comprising 1.0M sucrose, 10 mM MES, and 0.5M, 1.0M, or 1.5M of cryoprotectant were evaluated for pollen toxicity.

pollen [2] = test: Pollen permeability of cryoprotectants; details: permeability test of cryoprotectants
Description: as §1, §2

pollen permeability of cryoprotectant (pollen [1])	Structure (SMILES)	germination rates (corn pollen)	pollen permeability of cryoprotectant (pollen [2])
among the most permeable	C[S+](C)[O-] [DMSO, dimethyl sulfoxide]	highest germination rates	
	OCCO [ethylene glycol]	highest germination rates	among the most permeable
